Source: patent publication US9682033B2, “Methods of treating postherpetic neuralgia with a topical formulation of a spiro-oxindole compound” (Teva Pharmaceuticals International GmbH, priority 2015, dated 2017)

Tests used:
CYP3A4 = CYP3A4 (Homo sapiens, UniProt P08684); assay: Drug-drug interaction study in healthy subjects: midazolam (CYP3A4 substrate) pharmacokinetics (Biological Example 5); conditions: for Tmax / AUC(0-inf) / AUC(0-t) / Cmax: both, human, in vivo; for AUC(0-inf) / AUC(0-t) / Cmax: 3 mg
Chain of CYP3A4 (P08684 whole entry): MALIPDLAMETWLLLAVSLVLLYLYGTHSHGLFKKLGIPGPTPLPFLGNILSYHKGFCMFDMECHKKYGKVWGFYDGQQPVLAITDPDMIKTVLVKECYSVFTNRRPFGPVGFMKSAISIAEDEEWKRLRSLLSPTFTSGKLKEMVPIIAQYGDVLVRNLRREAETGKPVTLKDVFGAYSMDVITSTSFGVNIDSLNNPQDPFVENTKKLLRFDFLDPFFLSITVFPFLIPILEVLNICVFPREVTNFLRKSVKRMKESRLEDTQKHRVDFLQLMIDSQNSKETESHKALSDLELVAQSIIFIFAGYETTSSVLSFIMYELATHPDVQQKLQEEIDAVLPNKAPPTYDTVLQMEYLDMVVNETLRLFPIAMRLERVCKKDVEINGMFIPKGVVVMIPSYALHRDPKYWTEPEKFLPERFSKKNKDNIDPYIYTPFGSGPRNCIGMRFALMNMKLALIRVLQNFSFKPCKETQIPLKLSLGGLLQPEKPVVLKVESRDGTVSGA
Text: (§1) This was a single center, open-label, 1-sequence drug-drug interaction study in 32 healthy adult male and female subjects. The study consisted of a 28-day screening period, a 10-day inpatient treatment period, and a follow-up visit. Subjects meeting the study inclusion/exclusion requirements were admitted to the clinical research unit on day −1 and were confined until day 10.
(§2) Blood samples were collected for the assessment of the pharmacokinetics of midazolam and omeprazole.
(§3) The primary pharmacokinetic endpoints were the geometric mean ratios (90% confidence intervals [CIs]) for Cmax, AUC0-t, and AUC0-inf for midazolam and omeprazole on day 9 versus day 1.
(§4) Blood samples were collected for the assessment of the pharmacokinetics of the major metabolites of midazolam (1-OH-midazolam) and omeprazole (5-OH-omeprazole), and for the spiro-oxindole compound. Further secondary pharmacokinetic variables included Cmax, tmax, AUC0-t, AUC0-inf, CL/F, λz, t1/2, and % AUCext for 1-OH-midazolam and 5-OH-omeprazole, on days 1 and 9, and Cmax, morning predose concentrations (Ctrough), average plasma concentration over the dosing interval (Cave), and area under the plasma concentration-time curve over the dosing interval (AUC0-τ) were presented for the spiro-oxindole compound.
(§5) Descriptive statistics (n, mean, geometric mean, standard deviation [SD], % CV, median, minimum, and maximum) were used to summarize plasma midazolam, omeprazole and their metabolites, and the spiro-oxindole compound concentration for all subjects overall at each scheduled time point. Descriptive statistics (as noted above) were also used to summarize plasma omeprazole, 5-OH-omeprazole, and the spiro-oxindole compound concentration for all subjects overall by CYP2C19 genotype at each scheduled time point. Pharmacokinetic parameters were derived by noncompartmental analysis. Descriptive statistics (as noted above) were used to summarize the calculated pharmacokinetic parameters for midazolam, omeprazole and their metabolites, and the spiro-oxindole compound by treatment for all subjects. Descriptive statistics (as noted above) were also used to summarize the calculated pharmacokinetic parameters for omeprazole, 5-OH-omeprazole, and the spiro-oxindole compound by treatment and CYP2C19 genotype. Plots of geometric mean and individual plasma concentrations and of select pharmacokinetic parameters for midazolam, omeprazole and their metabolites and the spiro-oxindole compound at select sampling times were provided. Additionally, plots of individual select pharmacokinetic parameters by CYP2C19 phenotype for omeprazole at select time points were provided.

[1] = test system: streptozotocin-induced neuropathic pain model; assay: Streptozotocin-induced neuropathic pain model, mechanical allodynia (paw withdrawal threshold); assay type: in vivo, rats; conditions: rats, topical, 30 minutes after the dose
Text: Topical 4% Test Pharmaceutical Composition was compared with lidocaine and diclofenac for relief of mechanical allodynia in the streptozotocin-induced neuropathic pain model in rats.

CYP2C19 = assay: clinical; conditions: both, human, in vivo, 20 mg
Text: as §1, §2, §3, §4, §5

[2] = 1-OH metabolite after oral midazolam, day 1
[3] = 1-OH metabolite after oral midazolam, day 9

OCc1ncc2n1-c1ccc(Cl)cc1C(c1ccccc1F)=NC2 [1-OH-midazolam]
tmax (median) (CYP3A4; 1-OH metabolite after oral midazolam, both days 1 and 9): 0.75 h | AUC0-inf (geometric) (CYP3A4; [2]): 16.83 ng·h/mL | AUC0-t (geometric) (CYP3A4; [2]): 15.82 ng·h/mL | Cmax (geometric mean) (CYP3A4; [2]): 7.33 ng/mL | t1/2 (geometric mean) (CYP3A4; [2]): 4.39 h | AUC0-t (geometric) (CYP3A4; [3]): 17.18 ng·h/mL | Cmax (geometric mean) (CYP3A4; [3]): 6.67 ng/mL | t1/2 (geometric mean) (CYP3A4; [3]): 4.68 h

O=C(O)Cc1ccccc1Nc1c(Cl)cccc1Cl [diclofenac]
paw withdrawal threshold for the drug-treated paw (mechanical hyperalgesia) [1]: no significant increase in threshold

CCN(CC)CC(=O)Nc1c(C)cccc1C [lidocaine]
paw withdrawal threshold for the drug-treated paw (mechanical hyperalgesia) [1]: no significant increase in threshold

Cc1ncc2n1-c1ccc(Cl)cc1C(c1ccccc1F)=NC2 [midazolam, reference compound]
Tmax (CYP3A4): 0.75 h | AUC(0-inf) (CYP3A4): 40.7 ng·h/mL | AUC(0-t) (CYP3A4): 39.4 ng·h/mL | Cmax (CYP3A4): 14.6 ng/mL | Tmax (CYP3A4; po): 0.63 h | AUC(0-inf) (CYP3A4; po): 43.8 ng·h/mL | AUC(0-t) (CYP3A4; po): 42.2 ng·h/mL | Cmax (CYP3A4; po): 16.9 ng/mL

COc1ccc2[nH]c([S+]([O-])Cc3ncc(C)c(OC)c3C)nc2c1 (centres unmarked) [omeprazole]
Tmax (CYP2C19): 2.5 h | AUC0-inf (geometric mean) (CYP2C19; po): 633.97 ng·h/mL | AUC0-t (geometric mean) (CYP2C19; po): 556.16 ng·h/mL | Cmax (geometric mean) (CYP2C19; po): 227.04 ng/mL | Tmax (CYP2C19; po): 2 h | AUC(0-inf) (CYP2C19; po, AUC0-inf (geometric mean)): 635 ng·h/mL | AUC(0-t) (CYP2C19; po, AUC0-t (geometric mean)): 545 ng·h/mL | Cmax (CYP2C19; po, Cmax (geometric mean)): 227 ng/mL
